Data taken from patent US20060281768A1, “THIENOPYRIMIDINE AND THIENOPYRIDINE KINASE MODULATORS” (priority 2005, published 2006).

What was measured:
[1] = molecular target: T1, FLT3 571-993 (Homo sapiens, UniProt P36888); assay: FLT3 Fluorescence Polarization Kinase Assay; format: biochemical; details: 10 nM FLT3 571-993, 150 uM ATP, 30 minutes; uncertainty +10%
T1 construct: 10 nM FLT3 571-993, 20 ug/mL poly Glu4Tyr
T1 sequence (P36888 571-993): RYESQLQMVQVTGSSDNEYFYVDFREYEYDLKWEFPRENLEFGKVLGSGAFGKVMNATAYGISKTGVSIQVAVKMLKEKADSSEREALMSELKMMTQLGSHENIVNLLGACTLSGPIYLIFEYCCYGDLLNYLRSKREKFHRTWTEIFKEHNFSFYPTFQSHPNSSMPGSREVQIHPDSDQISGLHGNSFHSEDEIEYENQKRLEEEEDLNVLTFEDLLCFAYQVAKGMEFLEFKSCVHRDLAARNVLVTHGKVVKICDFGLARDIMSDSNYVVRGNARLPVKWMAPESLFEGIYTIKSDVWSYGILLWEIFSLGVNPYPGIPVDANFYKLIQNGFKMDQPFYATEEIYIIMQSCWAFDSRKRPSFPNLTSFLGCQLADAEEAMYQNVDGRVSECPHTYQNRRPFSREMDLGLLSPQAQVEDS
Method: The FLT3 FP assay utilizes the fluorescein-labeled phosphopeptide and the anti-phosphotyrosine antibody included in the Panvera Phospho-Tyrosine Kinase Kit (Green) supplied by Invitrogen. When FLT3 phosphorylates poly Glu4Tyr, the fluorescein-labeled phosphopeptide is displaced from the anti-phosphotyrosine antibody by the phosphorylated poly Glu4Tyr, thus decreasing the FP value. The FLT3 kinase reaction is incubated at room temperature for 30 minutes under the following conditions: 10 nM FLT3 571-993, 20 ug/mL poly Glu4Tyr, 150 uM ATP, 5mM MgCl2, 1% compound in DMSO. The kinase reaction is stopped with the addition of EDTA. The fluorescein-labeled phosphopeptide and the anti-phosphotyrosine antibody are added and incubated for 30 minutes at room temperature.
All data points are an average of triplicate samples. Inhibition and IC50 data analysis was done with GraphPad Prism using a non-linear regression fit with a multiparamater, sigmoidal dose-response (variable slope) equation.

[2] = tested on: MV4-11 cells; assay: Growth inhibition of MV4-11 cells (CellTiterGlo); format: cell-based; details: Homo sapiens, 72 hours, uncertainty +20%
Method: FLT3 specific growth inhibition was measured in the leukemic cell line MV4-11 (ATCC Number: CRL-9591). […] MV4-11 cells cannot grow and survive without active FLT31TD.
To measure proliferation inhibition by test compounds the luciferase based CellTiterGlo reagent (Promega) was used. Cells are plated at 10,000 cells per well in 100ul of in RPMI media containing penn/strep, 10% FBS and lng/ml GM-CSF or 1 ng/ml IL-3 for MV4-11 and Baf3 cells respectively.
Compound dilutions or 0.1% DMSO (vehicle control) are added to cells and the cells are allowed to grow for 72 hours at standard cell growth conditions (37° C., 5% CO2). Total cell growth is quantified as the difference in luminescent counts (relative light units, RLU) of cell number at Day 0 compared to total cell number at Day 3 (72 hours of growth and/or compound treatment). One hundred percent inhibition of growth is defined as an RLU equivalent to the Day 0 reading. Zero percent inhibition is defined as the RLU signal for the DMSO vehicle control at Day 3 of growth. All data points are an average of triplicate samples. […] Inhibition and IC50 data analysis was done with GraphPad Prism using a non-linear regression fit with a multiparamater, sigmoidal dose-response (variable slope) equation.
MV-411 cells expressed the FLT3 internal tandem duplication mutation, and thus were entirely dependent upon FLT3 activity for growth. […] In contrast, the Baf3 cell proliferations is driven by the cytokine IL-3 and these cells are used as a non-specific toxicity control for test compounds.

| Compound | IC50 [1] | IC50 [2] |
| --- | --- | --- |
| CC(C)c1ccc(NC(=O)OC2CCN(c3ncnc4sccc34)CC2)cc1 [Compound 1, (4-Isopropyl-phenyl)-carbamic acid 1-thieno[2,3-d]pyrimidin-4-yl-piperidin-4-yl ester] | 102 nM | 7200 nM |
| CC(C)Oc1ccc(NC(=O)OC2CCN(c3ncnc4sccc34)CC2)cc1 [Compound 2, (4-Isopropoxy-phenyl)-carbamic acid 1-thieno[2,3-d]pyrimidin-4-yl-piperidin-4-yl ester] | 2090 nM | > 10000 nM |
| CC(C)c1ccc(NC(=O)OC2CCN(c3ncnc4sccc34)C2)cc1 (centres unmarked) [Compound 3, (4-Isopropyl-phenyl)-carbamic acid 1-thieno[2,3-d]pyrimidin-4-yl-pyrrolidin-3-yl ester] | 227 nM | 2400 nM |
| CC(C)Oc1ccc(NC(=O)OC2CCN(c3ncnc4sccc34)C2)cc1 (centres unmarked) [Compound 4, (4-Isopropoxy-phenyl)-carbamic acid 1-thieno[2,3-d]pyrimidin-4-yl-pyrrolidin-3-yl ester] | 761 nM | > 10000 nM |
| CC(C)Oc1ccc(NC(=O)OC2CCN(c3ncnc4ccsc34)C2)cc1 (centres unmarked) [Compound 6, (4-Isopropoxy-phenyl)-carbamic acid 1-thieno[3,2-d]pyrimidin-4-yl-pyrrolidin-3-yl ester] | 208 nM | 6500 nM |
| CC(C)c1ccc(NC(=O)OC2CCN(c3ncnc4ccsc34)CC2)cc1 [Compound 7, (4-Isopropyl-phenyl)-carbamic acid 1-thieno[3,2-d]pyrimidin-4-yl-piperidin-4-yl ester] | 140 nM | 4300 nM |
| CC(C)Oc1ccc(NC(=O)OC2CCN(c3ncnc4ccsc34)CC2)cc1 [Compound 8, (4-Isopropoxy-phenyl)-carbamic acid 1-thieno[3,2-d]pyrimidin-4-yl-piperidin-4-yl ester] | 3030 nM | 3600 nM |
| O=C(Nc1ccc(OC2CCC2)nc1)NC1CCN(c2ncnc3ccsc23)CC1 [Compound 20, 1-(6-Cyclobutoxy-pyridin-3-yl)-3-(1-thieno [3,2-d]pyrimidin-4-yl-piperidin-4-yl)-urea] | – | 1500 nM |

Second part, the compound after the results:

| IC50 [1] | IC50 [2] | Compound |
| --- | --- | --- |
| – | > 5000 nM | O=C(Nc1ccc(N2CCOCC2)cc1)NC1CCN(c2ncnc3ccsc23)C1 (centres unmarked) [Compound 14, 1-(4-Morpholin-4-yl-phenyl)-3-(1-thieno [3,2-d]pyrimidin-4-yl-pyrrolidin-3-yl)-urea] |
| – | 5200 nM | O=C(Nc1ccc(C2CCCCC2)cc1)NC1CCN(c2ncnc3ccsc23)C1 (centres unmarked) [Compound 16, 1-(4-Cyclohexyl-phenyl)-3-(1-thieno [3,2-d]pyrimidin-4-yl-pyrrolidin-3-yl)-urea] |
| – | 1900 nM | O=C(Nc1ccc(Br)cc1)NC1CCN(c2ncnc3ccsc23)C1 (centres unmarked) [Compound 17, 1-(4-Bromo-phenyl)-3-(1-thieno [3,2-d]pyrimidin-4-yl-pyrrolidin-3-yl)-urea] |
| – | 1400 nM | O=C(Nc1ccc(C2CCCCC2)cc1)NC1CCN(c2ncnc3ccsc23)CC1 [Compound 21, 1-(4-Cyclohexyl-phenyl)-3-(1-thieno [3,2-d]pyrimidin-4-yl-piperidin-4-yl)-urea] |
| – | 3800 nM | O=C(Nc1ccc(Oc2ccccc2)cc1)NC1CCN(c2ncnc3ccsc23)CC1 [Compound 22, 1-(4-Phenoxy-phenyl)-3-(1-thieno [3,2-d]pyrimidin-4-yl-piperidin-4-yl)-urea] |
| – | 3900 nM | O=C(Nc1ccc(N2CCCC2)cc1)NC1CCN(c2ncnc3ccsc23)CC1 [Compound 23, 1-(4-Pyrrolidin-1-yl-phenyl)-3-(1-thieno [3,2-d]pyrimidin-4-yl-piperidin-4-yl)-urea] |
| – | > 5000 nM | O=C(Nc1ccc(N2CCOCC2)cc1)NC1CCN(c2ncnc3ccsc23)CC1 [Compound 24, 1-(4-Morpholin-4-yl-phenyl)-3-(1-thieno[3,2-d]pyrimidin-4-yl-piperidin-4-yl)-urea] |
| – | 2100 nM | O=C(Nc1ccc(N2CCOCC2)cc1)OC1CCN(c2ncnc3ccsc23)C1 (centres unmarked) [Compound 28, (4-Morpholin-4-yl-phenyl)-carbamic acid 1-thieno[3,2-d]pyrimidin-4-yl-pyrrolidin-3-yl ester] |
